Source: patent publication US11083724B2, “Rimegepant for CGRP related disorders” (Biohaven Pharmaceutical Holding Company Ltd., priority 2018, dated 2021)

System: subjects with Acute Migraines
Assay: Study 302 (BHV3000-302, NCT03237845): Phase 3 double-blind placebo-controlled trial, rimegepant 75 mg tablet, acute treatment of migraine
Format: in vivo, human
Details: for Percent (%) difference of Patients Pain Free: Rimegepant versus Placebo: no rescue meds, Kaplan-Meier estimates; for Freedom from MBS at 2 hours / Pain Freedom (pain-free) at 2 hours: N = 537
Method: Clinical Trial—BHV3000-302: Phase 3: Double-Blind, Randomized, Placebo-Controlled, Safety and Efficacy Trial of BHV-3000 (Rimegepant) for the Acute Treatment of Migraine (ClinicalTrials.gov Identifier: NCT03237845) A phase 3 clinical study was conducted with 1503 participants, as follows. The purpose of this study is to compare the efficacy of BHV-3000 (rimegepant) versus placebo in subjects with Acute Migraines Study Design • Study Type: Interventional (Clinical Trial) • Actual Enrollment: 1503 participants • Allocation: Randomized • Intervention Model: Parallel Assignment • Intervention Model Description: Double-blind to Sponsor, Investigator and Subject • Masking: Triple (Participant, Care Provider, Investigator) • Masking Description: Double-blind to Sponsor, Investigator and Subject • Primary Purpose: Treatment • Official Title: BHV3000-302: Phase 3: Double-Blind, Randomized, Placebo-Controlled, Safety and Efficacy Trial of BHV-3000 (Rimegepant) for the Acute Treatment of Migraine • Actual Study Start Date: Jul. 26, 2017 • Primary Completion Date: Jan. 25, 2018 • Study Completion Date: Jan. 31, 2018 Arms and Interventions Outcome Measures Primary Outcome Measures: • 1. Pain Freedom of rimegepant (75 mg tablet) compared with placebo in the acute treatment of migraine will be measured using the number of evaluable subjects that report no pain at 2 hours post-dose. [Time Frame: Two hours post dose] • Pain will be measured on a 4 point Likert scale (0=none, 1=mild, 2=moderate, 3=severe) • 2. Freedom from the most bothersome symptom (MBS) of rimegepant (75 mg tablet) compared with placebo will be measured using the number of evaluable subjects that report the absence of their MBS at 2 hours post-dose. [Time Frame: Two hours post dose] • The MBS (nausea, phonophobia or photophobia) will measured using a binary scale (0=absent, 1=present). Secondary Outcome Measures: • 1. […] [Time Frame: 2 hours-24 hours post-dose] • Sustained Pain Freedom as measured by a 4 point numeric rating scale (None, Mild, Moderate, Severe) • 2. Rimegepant (75 mg tablet) compared to placebo by tabulating the number of subjects that report the absence of photophobia at 2 hours post-dose in the subset of subjects that reported the presence of photophobia at headache baseline. [Time Frame: 2 hours post-dose] • Freedom from Photophobia • 3. Rimegepant (75 mg tablet) compared to placebo by tabulating the number of subjects that report the absence of phonophobia at 2 hours post-dose in the subset of subjects that reported the presence of phonophobia at headache baseline. [Time Frame: 2 hours post-dose] • Freedom from Phonophobia • 4. To measure rimegepant (75 mg tablet) compared to placebo on Pain Relief, at 2 hours post-dose, that report a pain level of moderate or severe at baseline and then report a pain level of none or mild. [Time Frame: 2 hours post-dose] • Pain Relief as measured by a 4 point numeric rating scale (None, Mild, Moderate, Severe) • 5. Freedom from Nausea will by tabulating the number of subjects that report the absence of nausea at 2 hours post-dose in the subset of subjects that reported the presence of nausea at headache baseline. [Time Frame: 2 hours post-dose] • Freedom from Nausea • 6. To measure rimegepant (75 mg tablet) compared to placebo on the probability of requiring rescue medication will be assessed using the number of subjects that take rescue medication within […] administration of study medication (BHV3000 or placebo). [Time Frame: up to 24 hours post-dose] • Requiring Rescue Medication • 7. […] [Time Frame: 2 hours-48 hours post-dose] • Sustained Pain Freedom as measured by a 4 point numeric rating scale (None, Mild, Moderate, Severe) • 8. […] [Time Frame: 2 hours-24 hours post-dose] • Sustained Pain Relief as measured by a 4 point numeric rating scale (None, Mild, Moderate, Severe) • 9. […] [Time Frame: 2 hours-48 hours post-dose] • Sustained Pain Relief as measured by a 4 point numeric rating scale (None, Mild, Moderate, Severe) • 10. […]

[1] = Study 302, single 75 mg tablet, listed as rimegepant

- bilirubin elevations greater than 2 times ULN (Study 302): no bilirubin elevations
- transaminase level greater than 3 times ULN (Study 302): No subject
SMILES: N[C@@H]1c2cccnc2[C@H](OC(=O)N2CCC(n3c(=O)[nH]c4ncccc43)CC2)CC[C@H]1c1cccc(F)c1F [Rimegepant, [(5S,6S,9R)-5-amino-6-(2,3-difluorophenyl)-6,7,8,9-tetrahydro-5H-cyclohepta[b]pyridin-9-yl] 4-(2-oxo-3H-imidazo[4,5-b]pyridin-1-yl)piperidine-1-carboxylate]
- SAEs related to the study drug (Study 302): No SAEs
- AE urinary tract infection (Study 302, 8/543): 1.5%
- AE nausea (Study 302, 10/543): 1.8%
- Serum ALT or AST levels greater than ULN (Study 302, 13/543): 2.4%
- Percent (%) difference of Patients Pain Free: Rimegepant versus Placebo (Study 302, 2 hours post single dose 75 mg): 7%
- Percent (%) difference of Patients Pain Free: Rimegepant versus Placebo (Study 302, 3 hours post single dose 75 mg): 13%
- Percent (%) difference of Patients Pain Free: Rimegepant versus Placebo (Study 302, 4 hours post single dose 75 mg): 19%
- Percent (%) difference of Patients Pain Free: Rimegepant versus Placebo (Study 302, 6 hours post single dose 75 mg): 22%
- Percent (%) difference of Patients Pain Free: Rimegepant versus Placebo (Study 302, 8 hours post single dose 75 mg): 19%
- functional disability: patients achieving normal function at 2 hours versus placebo (Study 302, P<0.0001): greater proportion
- Serious AEs (SAEs), subjects (Study 302, back pain): 1 subject
- Free from MBS at 2 hours, subjects [n/N] (Study 302, single 75 mg tablet): [202/537]
- Nausea-free at 2 hours (Study 302, single 75 mg tablet): 48.1%
- Nausea-free at 2 hours, subjects [n/N] (Study 302, single 75 mg tablet): [171/355]
- Pain relief at 2 hours (Study 302, single 75 mg tablet): 58.1%
- Pain relief at 2 hours, subjects [n/N] (Study 302, single 75 mg tablet): [312/537]
- Pain-free at 2 hours, subjects [n/N] (Study 302, single 75 mg tablet): [105/537]
- Phonophobia-free at 2 hours (Study 302, single 75 mg tablet): 36.7%
- Phonophobia-free at 2 hours, subjects [n/N] (Study 302, single 75 mg tablet): [133/362]
- Photophobia-free at 2 hours (Study 302, single 75 mg tablet): 37.4%
- Photophobia-free at 2 hours, subjects [n/N] (Study 302, single 75 mg tablet): [183/489]
- Sustained pain relief, 2-24 hours (Study 302, single 75 mg tablet): 42.6%
- Sustained pain relief, 2-24 hours, subjects [n/N] (Study 302, single 75 mg tablet): [229/537]
- Freedom from MBS at 2 hours (Study 302, single 75 mg tablet): 37.6%
- Pain Freedom (pain-free) at 2 hours (Study 302, single 75 mg tablet): 19.6%
- Freedom from MBS at 2 hours [1]: 37.6%
- Pain Freedom (pain-free) at 2 hours [1]: 19.6%
- Pain relief at 2 hours [1]: 58.1%
- sustained pain relief from 2 through 48 hours postdose versus placebo (Study 302, single dose, no rescue medication, P<0.0001): superiority versus placebo
- sustained pain freedom from 2 through 48 hours postdose versus placebo (Study 302, single dose, no rescue medication, P=0.0181): superiority versus placebo
